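Each compound was tested at five concentrations against cells in 96-well plates for 48 hours. TGI is the concentration that stops growth completely.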

The first assay concerns HS 578T breast. Kind of assay: NCI anticancer screen, dose series, 48 h.
For the compound `CC1(C)OC(=C(C#N)C#N)C(C#N)=C1/C=C/c1ccncc1`, the TGI amounted to 17.9 µM.

For the compound `O=S(=O)(O)c1ccc(N=Nc2ccc(N=Nc3c(O)ccc4ccccc34)cc2)cc1`, the TGI is over 100 µM.

Another assay has as its system IGROV1 ovarian. Kind of assay: NCI anticancer screen, dose series, 48 h.
For the compound `CSc1ncnc2c1cnn2CCCCO`, the TGI was over 100 µM.

`COc1ccc(OC)c(C2Cc3cnc4nc(N)nc(N)c4c3C2)c1` (stereo not given) displayed a TGI of 50.2 µM.

In the case of `COc1cc2c3c(c4cc(OC)c(OC)cc4c2cc1OC)C(=O)C1CCC(=O)N1C3` (stereo not given), the TGI was determined as 88.5 µM.

Regarding `CC(=O)Nc1ccc2cc(C)c(=O)[nH]c2n1`, the TGI is over 100 µM.

The compound `CCOC(=O)c1ccc(C(=O)/C(C#N)=C2\CCCN2C)[nH]1` yielded a TGI of over 100 µM.

Regarding `CN1CCN(CN2C(=O)C3C4C=CC(C3C2=O)C2C(=O)N(CN3CCN(C)CC3)C(=O)C42)CC1` (stereo not given), the TGI was over 100 µM.

The compound `Oc1ccc(-c2nc(-c3ccc(F)cc3)c(-c3ccc4ccccc4n3)[nH]2)cc1` returned a TGI of 26.5 µM.

As for `C[C@@]12CCC3C1C=C1C(=O)c4cc(O)ccc4C(=O)[C@]1(O2)[C@@]3(C)C=O`, the TGI was 19.6 µM.

The compound `CC(C)C[C@H]1[C@@H](OCc2ccccc2)COS(=O)N1[C@H](C)c1ccccc1` (stereo not given in full) yielded a TGI of over 100 µM.

For `CC1(C)OC2C(O)CN3CCS[C@H]3C2O1` (stereo not given in full), the TGI was over 100 µM.

As to `CC1(C)OC(=C(C#N)C#N)C(C#N)=C1/C=C/c1ccncc1`, the TGI stood at 4.21 µM.

In turn, `O=S(=O)(O)c1ccc(N=Nc2ccc(N=Nc3c(O)ccc4ccccc34)cc2)cc1` showed a TGI of over 100 µM.

Another assay concerns KM12 colon. Kind of assay: NCI anticancer screen, dose series, 48 h.
`CSc1ncnc2c1cnn2CCCCO`: the TGI is over 100 µM.

`COc1ccc(OC)c(C2Cc3cnc4nc(N)nc(N)c4c3C2)c1` (stereo not given) yielded a TGI of 55.7 µM.

Compound `COc1cc2c3c(c4cc(OC)c(OC)cc4c2cc1OC)C(=O)C1CCC(=O)N1C3` (stereo not given) gave a TGI of over 100 µM.

In turn, `CC(=O)Nc1ccc2cc(C)c(=O)[nH]c2n1` gave a TGI of over 100 µM.

In turn, `CCOC(=O)c1ccc(C(=O)/C(C#N)=C2\CCCN2C)[nH]1` displayed a TGI of over 100 µM.

Regarding `CN1CCN(CN2C(=O)C3C4C=CC(C3C2=O)C2C(=O)N(CN3CCN(C)CC3)C(=O)C42)CC1` (stereo not given), the TGI was over 100 µM.

`Oc1ccc(-c2nc(-c3ccc(F)cc3)c(-c3ccc4ccccc4n3)[nH]2)cc1` had a TGI of 19.1 µM.

For the compound `C[C@@]12CCC3C1C=C1C(=O)c4cc(O)ccc4C(=O)[C@]1(O2)[C@@]3(C)C=O`, the TGI is 18.1 µM.

`CC(C)C[C@H]1[C@@H](OCc2ccccc2)COS(=O)N1[C@H](C)c1ccccc1` (stereo not given in full): the TGI was 40.9 µM.

With `CC1(C)OC2C(O)CN3CCS[C@H]3C2O1` (stereo not given in full), the TGI was over 100 µM.

Turning to `CC1(C)OC(=C(C#N)C#N)C(C#N)=C1/C=C/c1ccncc1`, the TGI was found to be 9.14 µM.

In turn, `O=S(=O)(O)c1ccc(N=Nc2ccc(N=Nc3c(O)ccc4ccccc34)cc2)cc1` gave a TGI of over 100 µM.

The subject of the next assay is M14 melanoma. Kind of assay: NCI anticancer screen, dose series, 48 h.
With `CSc1ncnc2c1cnn2CCCCO`, the TGI was over 100 µM.

`COc1ccc(OC)c(C2Cc3cnc4nc(N)nc(N)c4c3C2)c1` (stereo not given) showed a TGI of over 100 µM.

In turn, `CC(=O)Nc1ccc2cc(C)c(=O)[nH]c2n1` yielded a TGI of over 100 µM.

On to `CCOC(=O)c1ccc(C(=O)/C(C#N)=C2\CCCN2C)[nH]1`, for which the TGI was over 100 µM.

As for `CN1CCN(CN2C(=O)C3C4C=CC(C3C2=O)C2C(=O)N(CN3CCN(C)CC3)C(=O)C42)CC1` (stereo not given), the TGI was over 80.6 µM.

Take `Oc1ccc(-c2nc(-c3ccc(F)cc3)c(-c3ccc4ccccc4n3)[nH]2)cc1`: the TGI is 22.9 µM.

`C[C@@]12CCC3C1C=C1C(=O)c4cc(O)ccc4C(=O)[C@]1(O2)[C@@]3(C)C=O`: the TGI came to 19.9 µM.

In the case of `CC(C)C[C@H]1[C@@H](OCc2ccccc2)COS(=O)N1[C@H](C)c1ccccc1` (stereo not given in full), the TGI turned out to be 29.5 µM.

`CC1(C)OC2C(O)CN3CCS[C@H]3C2O1` (stereo not given in full) registered a TGI of over 100 µM.

The compound `CC1(C)OC(=C(C#N)C#N)C(C#N)=C1/C=C/c1ccncc1` showed a TGI of 6.56 µM.

As to `O=S(=O)(O)c1ccc(N=Nc2ccc(N=Nc3c(O)ccc4ccccc34)cc2)cc1`, the TGI was over 100 µM.

Another assay deals with MOLT-4 leukemia. Kind of assay: NCI anticancer screen, dose series, 48 h.
Consider `CSc1ncnc2c1cnn2CCCCO`, for which the TGI was over 100 µM.

For `COc1ccc(OC)c(C2Cc3cnc4nc(N)nc(N)c4c3C2)c1` (stereo not given), the TGI amounted to 87.5 µM.

`COc1cc2c3c(c4cc(OC)c(OC)cc4c2cc1OC)C(=O)C1CCC(=O)N1C3` (stereo not given) yielded a TGI of 37.5 µM.

The compound `CC(=O)Nc1ccc2cc(C)c(=O)[nH]c2n1` yielded a TGI of over 100 µM.

In turn, `CCOC(=O)c1ccc(C(=O)/C(C#N)=C2\CCCN2C)[nH]1` gave a TGI of over 100 µM.

On to `CN1CCN(CN2C(=O)C3C4C=CC(C3C2=O)C2C(=O)N(CN3CCN(C)CC3)C(=O)C42)CC1` (stereo not given), for which the TGI was found to be 97.1 µM.

As for `Oc1ccc(-c2nc(-c3ccc(F)cc3)c(-c3ccc4ccccc4n3)[nH]2)cc1`, the TGI is 25.2 µM.

`C[C@@]12CCC3C1C=C1C(=O)c4cc(O)ccc4C(=O)[C@]1(O2)[C@@]3(C)C=O`: the TGI is 12.9 µM.

`CC(C)C[C@H]1[C@@H](OCc2ccccc2)COS(=O)N1[C@H](C)c1ccccc1` (stereo not given in full) showed a TGI of 51.3 µM.

The compound `CC1(C)OC2C(O)CN3CCS[C@H]3C2O1` (stereo not given in full) showed a TGI of over 100 µM.

Take `CC1(C)OC(=C(C#N)C#N)C(C#N)=C1/C=C/c1ccncc1`: the TGI was found to be 4.42 µM.

On to `O=S(=O)(O)c1ccc(N=Nc2ccc(N=Nc3c(O)ccc4ccccc34)cc2)cc1`, for which the TGI was over 100 µM.

Another assay deals with NCI-H226 lung. Kind of assay: NCI anticancer screen, dose series, 48 h.
In turn, `CSc1ncnc2c1cnn2CCCCO` came in with a TGI of over 100 µM.

Turning to `CCOC(=O)c1ccc(C(=O)/C(C#N)=C2\CCCN2C)[nH]1`, the TGI was over 100 µM.

As to `CN1CCN(CN2C(=O)C3C4C=CC(C3C2=O)C2C(=O)N(CN3CCN(C)CC3)C(=O)C42)CC1` (stereo not given), the TGI was over 100 µM.

Turning to `Oc1ccc(-c2nc(-c3ccc(F)cc3)c(-c3ccc4ccccc4n3)[nH]2)cc1`, the TGI was 28.6 µM.

`C[C@@]12CCC3C1C=C1C(=O)c4cc(O)ccc4C(=O)[C@]1(O2)[C@@]3(C)C=O` registered a TGI of 44.5 µM.

`CC(C)C[C@H]1[C@@H](OCc2ccccc2)COS(=O)N1[C@H](C)c1ccccc1` (stereo not given in full): the TGI turned out to be 36 µM.
